Source: the NIST ThermoML archive (doi:10.1021/je049671t)

Test: xn = mol fraction of the nth substance listed
Conditions: Liquid, Vibrating tube method

CC(C)C [2-methylpropane] + CCCC
Conditions | mass density [kg/m3]
240 K, 468.1 kPa, x2 = 0.5 | 626.35
240 K, 481.6 kPa, x2 = 0.25 | 621.79
240 K, 499 kPa, x2 = 0.75 | 631.33
240 K, 989.5 kPa, x2 = 0.5 | 626.9
240 K, 999.5 kPa, x2 = 0.25 | 622.36
240 K, 1001 kPa, x2 = 0.75 | 631.85
240 K, 1472.5 kPa, x2 = 0.5 | 627.41
240 K, 1500.2 kPa, x2 = 0.75 | 632.38
240 K, 1503.1 kPa, x2 = 0.25 | 622.9
240 K, 1962.6 kPa, x2 = 0.5 | 627.92
240 K, 2001.8 kPa, x2 = 0.25 | 623.43
240 K, 2011.4 kPa, x2 = 0.75 | 632.88
240 K, 2468.8 kPa, x2 = 0.5 | 628.43
240 K, 2493.8 kPa, x2 = 0.25 | 623.95
240 K, 2505.1 kPa, x2 = 0.75 | 633.43
240 K, 2976.4 kPa, x2 = 0.5 | 628.95
240 K, 2987.3 kPa, x2 = 0.25 | 624.47
240 K, 3003.9 kPa, x2 = 0.75 | 633.91
240 K, 3446 kPa, x2 = 0.5 | 629.43
240 K, 3481.8 kPa, x2 = 0.25 | 624.99
240 K, 3507.2 kPa, x2 = 0.75 | 634.38
240 K, 3970.1 kPa, x2 = 0.25 | 625.5
240 K, 3982.7 kPa, x2 = 0.5 | 629.98
240 K, 4015.3 kPa, x2 = 0.75 | 634.92
240 K, 4467.2 kPa, x2 = 0.5 | 630.47
240 K, 4485.6 kPa, x2 = 0.25 | 626.03
240 K, 4509.6 kPa, x2 = 0.75 | 635.35
240 K, 4983.6 kPa, x2 = 0.5 | 630.99
240 K, 5011.3 kPa, x2 = 0.75 | 635.85
240 K, 5024.9 kPa, x2 = 0.25 | 626.58
240 K, 5486.4 kPa, x2 = 0.5 | 631.5
240 K, 5515.8 kPa, x2 = 0.75 | 636.31
240 K, 5519.2 kPa, x2 = 0.25 | 627.11
240 K, 5981.2 kPa, x2 = 0.5 | 631.99
240 K, 6023.5 kPa, x2 = 0.75 | 636.82
240 K, 6067.5 kPa, x2 = 0.25 | 627.64
240 K, 6486.1 kPa, x2 = 0.5 | 632.5
240 K, 6492.4 kPa, x2 = 0.75 | 637.29
240 K, 6517.4 kPa, x2 = 0.25 | 628.1
240 K, 6977 kPa, x2 = 0.25 | 628.56
240 K, 6981 kPa, x2 = 0.5 | 632.99
240 K, 6991.5 kPa, x2 = 0.75 | 637.75
260 K, 496.3 kPa, x2 = 0.75 | 610.36
260 K, 503.7 kPa, x2 = 0.25 | 600.66
260 K, 503.9 kPa, x2 = 0.5 | 605.31
260 K, 979.3 kPa, x2 = 0.25 | 601.29
260 K, 993.2 kPa, x2 = 0.75 | 610.92
260 K, 1011.2 kPa, x2 = 0.5 | 605.96
260 K, 1489.5 kPa, x2 = 0.75 | 611.52
260 K, 1490.8 kPa, x2 = 0.25 | 601.97
260 K, 1508.9 kPa, x2 = 0.5 | 606.59
260 K, 2002.5 kPa, x2 = 0.75 | 612.18
260 K, 2003.1 kPa, x2 = 0.25 | 602.64
260 K, 2010.9 kPa, x2 = 0.5 | 607.22
260 K, 2507.6 kPa, x2 = 0.5 | 607.84
260 K, 2510.1 kPa, x2 = 0.75 | 612.77
260 K, 2511.6 kPa, x2 = 0.25 | 603.29
260 K, 2993.6 kPa, x2 = 0.5 | 608.43
260 K, 2999.7 kPa, x2 = 0.25 | 603.92
260 K, 3016.5 kPa, x2 = 0.75 | 613.4
260 K, 3495.3 kPa, x2 = 0.75 | 613.93
260 K, 3505.2 kPa, x2 = 0.25 | 604.56
260 K, 3514 kPa, x2 = 0.5 | 609.08
260 K, 3991.1 kPa, x2 = 0.5 | 609.66
260 K, 4009.7 kPa, x2 = 0.75 | 614.5
260 K, 4014.1 kPa, x2 = 0.25 | 605.19
260 K, 4508.9 kPa, x2 = 0.5 | 610.27
260 K, 4519.2 kPa, x2 = 0.75 | 615.15
260 K, 4521 kPa, x2 = 0.25 | 605.82
260 K, 5018.2 kPa, x2 = 0.75 | 615.65
260 K, 5023.4 kPa, x2 = 0.25 | 606.44
260 K, 5026.4 kPa, x2 = 0.5 | 610.89
260 K, 5506.4 kPa, x2 = 0.25 | 607.02
260 K, 5512.2 kPa, x2 = 0.75 | 616.21
260 K, 5517.9 kPa, x2 = 0.5 | 611.47
260 K, 6004.4 kPa, x2 = 0.75 | 616.79
260 K, 6023 kPa, x2 = 0.5 | 612.08
260 K, 6028.5 kPa, x2 = 0.25 | 607.65
260 K, 6519.2 kPa, x2 = 0.25 | 608.25
260 K, 6526.2 kPa, x2 = 0.75 | 617.32
260 K, 6531.1 kPa, x2 = 0.5 | 612.67
260 K, 6987.3 kPa, x2 = 0.5 | 613.2
260 K, 7000.3 kPa, x2 = 0.25 | 608.81
260 K, 7024.3 kPa, x2 = 0.75 | 617.88
280 K, 491.4 kPa, x2 = 0.25 | 578.14
280 K, 494.5 kPa, x2 = 0.75 | 588.49
280 K, 514.1 kPa, x2 = 0.5 | 583.32
280 K, 997.4 kPa, x2 = 0.5 | 584.09
280 K, 997.5 kPa, x2 = 0.25 | 578.99
280 K, 997.9 kPa, x2 = 0.75 | 589.24
280 K, 1496 kPa, x2 = 0.25 | 579.79
280 K, 1499.8 kPa, x2 = 0.75 | 590.03
280 K, 1515.6 kPa, x2 = 0.5 | 584.89
280 K, 1990.8 kPa, x2 = 0.5 | 585.62
280 K, 1991.8 kPa, x2 = 0.75 | 590.76
280 K, 2009.2 kPa, x2 = 0.25 | 580.63
280 K, 2501 kPa, x2 = 0.75 | 591.51
280 K, 2510.6 kPa, x2 = 0.5 | 586.43
280 K, 2512.7 kPa, x2 = 0.25 | 581.42
280 K, 3001.9 kPa, x2 = 0.75 | 592.24
280 K, 3016.2 kPa, x2 = 0.5 | 587.2
280 K, 3023 kPa, x2 = 0.25 | 582.23
280 K, 3506.9 kPa, x2 = 0.25 | 582.98
280 K, 3511.3 kPa, x2 = 0.75 | 592.97
280 K, 3532.6 kPa, x2 = 0.5 | 587.97
280 K, 4008 kPa, x2 = 0.25 | 583.74
280 K, 4010.5 kPa, x2 = 0.75 | 593.64
280 K, 4012.8 kPa, x2 = 0.5 | 588.67
280 K, 4502.1 kPa, x2 = 0.75 | 594.34
280 K, 4504.4 kPa, x2 = 0.25 | 584.53
280 K, 4508.3 kPa, x2 = 0.5 | 589.4
280 K, 4994.2 kPa, x2 = 0.75 | 595.02
280 K, 5006.3 kPa, x2 = 0.25 | 585.27
280 K, 5025.7 kPa, x2 = 0.5 | 590.15
280 K, 5479.3 kPa, x2 = 0.5 | 590.82
280 K, 5523.8 kPa, x2 = 0.25 | 586.04
280 K, 5525.5 kPa, x2 = 0.75 | 595.77
280 K, 5942.8 kPa, x2 = 0.75 | 596.37
280 K, 5993.3 kPa, x2 = 0.5 | 591.55
280 K, 6024.7 kPa, x2 = 0.25 | 586.78
280 K, 6475.5 kPa, x2 = 0.75 | 597.09
280 K, 6510.8 kPa, x2 = 0.25 | 587.5
280 K, 6528.5 kPa, x2 = 0.5 | 592.3
280 K, 6953.9 kPa, x2 = 0.5 | 592.89
280 K, 6984.1 kPa, x2 = 0.25 | 588.18
280 K, 7039.4 kPa, x2 = 0.75 | 597.8
300 K, 312 kPa, x2 = 0.5 | 559.4
300 K, 502.9 kPa, x2 = 0.25 | 554.17
300 K, 505.7 kPa, x2 = 0.75 | 565.16
300 K, 510.2 kPa, x2 = 0.5 | 559.82
300 K, 983.9 kPa, x2 = 0.5 | 560.78
300 K, 999.4 kPa, x2 = 0.25 | 555.23
300 K, 1002.4 kPa, x2 = 0.75 | 566.11
300 K, 1493 kPa, x2 = 0.75 | 567.04
300 K, 1497.1 kPa, x2 = 0.25 | 556.26
300 K, 1509.8 kPa, x2 = 0.5 | 561.83
300 K, 1992.8 kPa, x2 = 0.5 | 562.77
300 K, 1997.4 kPa, x2 = 0.25 | 557.29
300 K, 2007.5 kPa, x2 = 0.75 | 568
300 K, 2498.6 kPa, x2 = 0.25 | 558.33
300 K, 2510.2 kPa, x2 = 0.75 | 568.9
300 K, 2513.9 kPa, x2 = 0.5 | 563.78
300 K, 2995.9 kPa, x2 = 0.75 | 569.79
300 K, 3011.4 kPa, x2 = 0.5 | 564.72
300 K, 3014 kPa, x2 = 0.25 | 559.36
300 K, 3476.1 kPa, x2 = 0.5 | 565.59
300 K, 3483.6 kPa, x2 = 0.75 | 570.68
300 K, 3510.6 kPa, x2 = 0.25 | 560.33
300 K, 3988.4 kPa, x2 = 0.5 | 566.54
300 K, 4007.7 kPa, x2 = 0.25 | 561.28
300 K, 4013.5 kPa, x2 = 0.75 | 571.62
300 K, 4453.4 kPa, x2 = 0.5 | 567.4
300 K, 4467 kPa, x2 = 0.75 | 572.38
300 K, 4513.9 kPa, x2 = 0.25 | 562.25
300 K, 4997.8 kPa, x2 = 0.75 | 573.31
300 K, 5016.3 kPa, x2 = 0.25 | 563.17
300 K, 5026.1 kPa, x2 = 0.5 | 568.4
300 K, 5472.7 kPa, x2 = 0.5 | 569.19
300 K, 5473.2 kPa, x2 = 0.75 | 574.11

mass density [kg/m3]
Conditions | 240 K | 260 K | 280 K
x2 = 0.25 | 621.33 | 600.04 | 577.61
x2 = 0.5 | 625.96 | 604.76 | 582.79
x2 = 0.75 | 630.89 | 609.84 | 588.07
